Assay results as given in BindingDB's records for doi:10.1016/j.ejmech.2018.12.019 (Rheinische Friedrich-Wilhelms-University of Bonn, 2019).
pEC50: −log10 of the molar value.

Key:
[1] = target: ATP-dependent translocase ABCB1 (Homo sapiens, UniProt P08183); test: Inhibition of ABCB1 in human A2780/ADR cells assessed as potentiation of daunorubicin-induced cytotoxicity measured after 72 hrs by MTT assay
[2] = Inhibition of ABCG2 (unknown origin) expressed in MDCK2 cells co-expressing BCRP (unknown origin) assessed as potentiation of SN-38-induced cytotoxicity measured after 72 hrs by MTT assay
[3] = Inhibition of ABCB1 in human A2780/ADR cells assessed as potentiation of daunorubicin-induced cytotoxicity measured after 72 hrs by MTT assay
[4] = target: T1, Broad substrate specificity ATP-binding cassette transporter ABCG2 (Homo sapiens, UniProt Q9UNQ0); test: Inhibition of ABCG2 (unknown origin) expressed in MDCK2 cells co-expressing BCRP (unknown origin) assessed as potentiation of SN-38-induced cytotoxicity measured after 72 hrs by MTT assay
T1 sequence (Q9UNQ0 whole entry): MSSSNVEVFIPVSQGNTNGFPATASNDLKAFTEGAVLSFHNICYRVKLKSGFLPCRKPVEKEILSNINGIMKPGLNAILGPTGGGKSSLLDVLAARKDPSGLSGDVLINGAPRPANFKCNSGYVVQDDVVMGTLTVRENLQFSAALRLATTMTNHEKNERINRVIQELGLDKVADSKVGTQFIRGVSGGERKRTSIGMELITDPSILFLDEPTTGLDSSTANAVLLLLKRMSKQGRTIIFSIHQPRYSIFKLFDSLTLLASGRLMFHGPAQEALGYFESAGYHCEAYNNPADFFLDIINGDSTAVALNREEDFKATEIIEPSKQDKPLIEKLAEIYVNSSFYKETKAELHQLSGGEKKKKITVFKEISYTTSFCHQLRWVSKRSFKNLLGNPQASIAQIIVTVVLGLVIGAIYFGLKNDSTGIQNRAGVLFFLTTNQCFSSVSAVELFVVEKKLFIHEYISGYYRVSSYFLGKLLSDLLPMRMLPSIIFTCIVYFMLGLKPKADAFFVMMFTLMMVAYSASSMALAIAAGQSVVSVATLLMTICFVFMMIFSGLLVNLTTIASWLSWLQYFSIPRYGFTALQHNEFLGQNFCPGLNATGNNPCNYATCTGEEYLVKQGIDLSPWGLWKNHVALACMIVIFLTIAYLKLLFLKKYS

Sequence of ATP-dependent translocase ABCB1 (P08183 whole entry): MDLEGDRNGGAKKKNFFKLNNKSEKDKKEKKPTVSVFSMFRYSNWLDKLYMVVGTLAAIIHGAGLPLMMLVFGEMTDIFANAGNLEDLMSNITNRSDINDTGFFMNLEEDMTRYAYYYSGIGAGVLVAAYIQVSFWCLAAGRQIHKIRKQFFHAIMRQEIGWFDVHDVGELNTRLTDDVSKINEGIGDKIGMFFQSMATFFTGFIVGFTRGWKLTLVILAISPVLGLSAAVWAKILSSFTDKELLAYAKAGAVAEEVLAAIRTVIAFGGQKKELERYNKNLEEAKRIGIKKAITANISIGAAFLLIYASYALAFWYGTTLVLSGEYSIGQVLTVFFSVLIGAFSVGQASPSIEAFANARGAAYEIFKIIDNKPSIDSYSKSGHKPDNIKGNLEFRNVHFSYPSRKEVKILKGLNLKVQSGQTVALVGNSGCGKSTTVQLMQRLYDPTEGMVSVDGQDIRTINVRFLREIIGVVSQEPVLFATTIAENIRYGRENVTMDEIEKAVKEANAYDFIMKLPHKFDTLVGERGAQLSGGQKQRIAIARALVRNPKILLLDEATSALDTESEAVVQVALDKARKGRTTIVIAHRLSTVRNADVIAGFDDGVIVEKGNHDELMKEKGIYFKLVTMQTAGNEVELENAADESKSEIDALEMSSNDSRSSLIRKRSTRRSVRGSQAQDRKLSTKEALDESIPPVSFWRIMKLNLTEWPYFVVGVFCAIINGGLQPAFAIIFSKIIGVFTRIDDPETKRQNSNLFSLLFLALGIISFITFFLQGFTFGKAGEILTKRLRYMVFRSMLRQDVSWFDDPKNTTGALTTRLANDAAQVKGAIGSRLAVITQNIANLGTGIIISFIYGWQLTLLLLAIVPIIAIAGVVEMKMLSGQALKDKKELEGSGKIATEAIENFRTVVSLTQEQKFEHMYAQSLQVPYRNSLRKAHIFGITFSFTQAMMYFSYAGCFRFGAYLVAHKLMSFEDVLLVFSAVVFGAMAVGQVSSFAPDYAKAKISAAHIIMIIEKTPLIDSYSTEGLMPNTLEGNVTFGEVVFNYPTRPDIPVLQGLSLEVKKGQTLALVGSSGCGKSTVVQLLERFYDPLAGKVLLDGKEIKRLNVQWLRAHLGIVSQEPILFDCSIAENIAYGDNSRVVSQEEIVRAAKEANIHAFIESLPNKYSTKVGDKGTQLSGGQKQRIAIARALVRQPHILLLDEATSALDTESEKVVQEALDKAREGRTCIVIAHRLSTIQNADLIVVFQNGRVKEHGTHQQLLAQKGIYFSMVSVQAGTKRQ

Cc1ccc(-n2nc(C(C)(C)C)cc2NC(=O)Nc2ccc(OCCN3CCOCC3)c3ccccc23)cc1 [1-[5-tert-butyl-2-(p-tolyl)pyrazol-3-yl]-3-[4-(2-morpholinoethoxy)-1-naphthyl]urea]
pEC50 [1]: 6.28

COc1cccc(/C=C/C(=O)c2ccc(OCC(=O)Nc3ccc(OC)c(OC)c3)cc2)c1
pEC50 [2]: 5.86

COc1ccc(-c2c(OCC(=O)Nc3cccc4ccccc34)oc3ccccc3c2=O)cc1OC
pEC50 [2]: 6.35 | pEC50 [3]: 5.51

CC(=O)Nc1cccc(-n2c(=O)n(C3CC3)c(=O)c3c(Nc4ccc(I)cc4F)n(C)c(=O)c(C)c32)c1 [CHEBI:75998]
pEC50 [1]: 6.61

COC(=O)c1ccc2c(c1)NC(=O)/C2=C(\Nc1ccc(N(C)C(=O)CN2CCN(C)CC2)cc1)c1ccccc1 [BIBF-1120]
pEC50 [1]: 6.56

COc1ccc(-c2c(OCC(=O)Nc3cccc4ccccc34)oc3ccccc3c2=O)cc1
pEC50 [2]: 6.10

COc1cc2ncnc(Nc3ccc(O)c(Br)c3)c2cc1OC [WHI-P154]
pEC50 [4]: 6.72 | pEC50 [3]: 5.51

Cc1ccc(-c2c(OCC(=O)Nc3cccc4ccccc34)oc3ccccc3c2=O)cc1
pEC50 [3]: 5.30

COc1ccc(NC(=O)COc2ccc(C(=O)/C=C/c3c(F)cccc3F)cc2)cc1OC
pEC50 [2]: 6.35

COc1cc(C(=O)/C=C/c2cc(OC)c(OC)c(OC)c2)ccc1O
pEC50 [2]: 6.29

Cc1cc(Nc2ncc(Cl)c(Nc3ccccc3S(=O)(=O)C(C)C)n2)c(OC(C)C)cc1C1CCNCC1
pEC50 [1]: 7.05

C[C@]1(O)C[C@@H](c2nc(-c3ccc4ccc(-c5ccccc5)nc4c3)c3c(N)nccn32)C1 [(1s,3s)-3-(8-amino-1-(2-phenylquinolin-7-yl)imidazo[1,5-a]pyrazin-3-yl)-1-methylcyclobutanol]
pEC50 [4]: 6.98 | pEC50 [3]: 5.68

O=C(COc1c(-c2ccccc2Cl)oc2ccccc2c1=O)Nc1ccc2c(c1)COC2=O
pEC50 [2]: 5.91 | pEC50 [3]: 5.00

CN1CCN(c2cccc(Nc3nc4c(-c5ccc(S(C)(=O)=O)cc5)cccn4n3)c2)CC1
pEC50 [1]: 6.69

CCCOc1ccc(/C=C/C(=O)c2ccc(O)cc2)cc1
pEC50 [2]: 5.90

O=C(COc1cccc(C(=O)/C=C/c2ccccc2)c1)Nc1ccc2c(c1)COC2=O
pEC50 [2]: 5.93

COc1cc(/C=C/C(=O)c2ccc(OCC(=O)NCc3ccc4c(c3)OCO4)cc2)cc(OC)c1OC
pEC50 [2]: 6.00

COc1ccc(NC(=O)COc2ccc(C(=O)/C=C/c3cc(OC)c(OC)c(OC)c3)cc2)cc1OC
pEC50 [2]: 6.97
